The test addresses T1, Slr1393g3 (GAF3 domain of cyanobacteriochrome Slr1393) (Synechocystis sp. PCC 6803, UniProt P73184).
T1 construct: isolated GAF3 domain, residues 441-596 modelled (155 amino acids stated), N-terminal His tag (tag residues seen at both ends), expressed in E. coli; one monomer per ASU, dimer in solution for Pr state
T1 sequence (P73184 441-596): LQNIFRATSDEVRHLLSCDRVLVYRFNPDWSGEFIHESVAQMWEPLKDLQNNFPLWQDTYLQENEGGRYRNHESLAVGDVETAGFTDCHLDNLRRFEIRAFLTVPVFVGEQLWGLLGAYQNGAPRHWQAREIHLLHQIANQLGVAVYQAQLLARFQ
As to the kind of experiment: X-ray crystallography. The format is binding. Conditions: covalent; thioether bond of Cys528 to C3(1) of PCB; 5DFY in vitro assembled Pr 1.6 A; 5DFX in vivo Pr 1.8 A; 5M82 Pg (15-E) 1.86 A; 5M85 X-ray induced intermediate 2.1 A.

Structures are written as SMILES.

For one molecule, X-ray crystallography results are on record in publication doi:10.1101/155374v1, “A trapped double bond-photoisomerization intermediate in a bacterial photoreceptor” (biorxiv, 2017).

As for `C/C=C1/C(=C/c2[nH]c(/C=C3N=C(/C=C4\NC(=O)C(CC)=C4C)C(C)=C\3CCC(=O)O)c(CCC(=O)O)c2C)NC(=O)[C@@H]1C` [PCB, phycocyanobilin], the X-ray crystallography result is on record as “The PCB chromophore is covalently bound to Cys528 on helix a4”.
